Test results taken from patent publication US10092537B2, “Use for PAI-1 inhibitor” (RENASCIENCE CO., LTD., priority 2013, dated 2018).
Counter-ions that a name gives are not always drawn.

Tests used:
[1] = molecular target: T1, human PAI-1 (Homo sapiens, UniProt P05121); test: Measurement of PAI-1 inhibitory activity of compound group 2 (t-PA, S-2288 chromogenic substrate); settings: PAI-1 activity of the system without compound after 30 minutes taken as 100%
Protocol: Subsequently, human-derived tissue plasminogen activator (t-PA) (manufactured by American Diagnostica, Inc. (USA); the same applies hereinafter) adjusted to 0.3 pmol/μL was added thereto, and the mixture was further incubated at 37° C. for 15 minutes.

[2] = molecular target: T1, human PAI-1; test: Measurement of PAI-1 inhibitory activity of compound group 3 (t-PA, S-2288 chromogenic substrate; Table 4)
Protocol: Subsequently, tissue plasminogen activator (t-PA) (manufactured by American Diagnostica, Inc. (USA); the same applies hereinafter) adjusted to 0.3 pmol/μL was added thereto, and further incubated at 37° C. for 15 minutes.

[3] = molecular target: T1, human PAI-1; test: Measurement of PAI-1 inhibitory activity of compound group 1 (t-PA, Spectrozyme t-PA chromogenic substrate); settings: for activity at 2.5 µM / activity at 10 µM: read-out: PAI-1 activity %; for PAI-1 activity %: PAI-1 activity of the system without compound after 120 minutes taken as 100%
Protocol: Subsequently, human-derived tissue plasminogen activator (t-PA) (manufactured by American Diagnostica, Inc. (USA); the same applies hereinafter) adjusted to 0.05 pmol/μL was added thereto, and the mixture was further incubated at 37° C. for 60 minutes. Then, 0.25 mM of Spectrozyme t-PA synthetic substrate (manufactured by American Diagnostica, Inc. (USA); the same applies hereinafter), which is a chromogenic substrate, was added. The final mixture contained 50 mM Tris-HCl (pH 8), 150 mM NaCl, 1% DMSO, 0.1% PEG-6000, 0.2 mM CHAPS, 5 nM PAI-1, 2 nM t-PA, 0.2 mM Spectrozyme t-PA synthetic substrate, and each compound (10 μM or 2.5 μM).
Free radical p-nitroaniline removed from the chromogenic substrate (Spectrozyme t-PA) by t-PA action was measured using a spectrophotometer at an absorbance of 405 nm at 20-minute intervals, for 120 minutes.

[4] = molecular target: T1, human PAI-1; test: Measurement of PAI-1 inhibitory activity of compound group 1 (t-PA, S-2288 chromogenic substrate); settings: read-out: PAI-1 activity %
Protocol: Subsequently, human-derived tissue plasminogen activator (t-PA) (manufactured by American Diagnostica, Inc. (USA); the same applies hereinafter) adjusted to 0.35 pmol/μL was added thereto, and the mixture was further incubated at 37° C. for 15 minutes.

T1 sequence (P05121 24-402): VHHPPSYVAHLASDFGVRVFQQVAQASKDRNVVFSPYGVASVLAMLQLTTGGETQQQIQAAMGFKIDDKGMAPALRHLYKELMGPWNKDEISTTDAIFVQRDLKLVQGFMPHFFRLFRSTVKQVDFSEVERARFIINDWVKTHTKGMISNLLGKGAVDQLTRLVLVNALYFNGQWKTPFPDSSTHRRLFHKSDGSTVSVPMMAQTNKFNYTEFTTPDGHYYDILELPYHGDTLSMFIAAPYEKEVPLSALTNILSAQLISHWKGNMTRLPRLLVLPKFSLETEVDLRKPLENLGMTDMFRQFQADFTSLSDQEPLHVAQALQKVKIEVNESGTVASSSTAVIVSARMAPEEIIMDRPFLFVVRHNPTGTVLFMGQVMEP

Row | activity at 2.5 µM [3] | activity at 10 µM [3] | activity at 20 µM [4] | activity at 50 µM [4] | Molecule | other results
1 | 21.3% | 0.3% |  |  | O=C(Nc1ccc(Cl)cc1C(=O)[O-])c1cccc(-c2cnc3ccccc3c2)c1.[Na+] [Example 63, sodium 5-chloro-2-({[3-(quinolin-3-yl)phenyl]carbonyl}amino)benzoate] | PAI-1 activity % ([1]; compound 20 μM): 78.2%; PAI-1 activity % ([1]; compound 50 μM): 21.4%; PAI-1 activity % ([2]; compound concentration 20 μM): 64.3%; PAI-1 activity % ([2]; compound concentration 50 μM): 10.6%
2 | 74.3% | 0.7% |  |  | O=C(Nc1ccc(Cl)cc1C(=O)[O-])c1cccc(-c2cncc3ccccc23)c1.[Na+] [Example 64, sodium 5-chloro-2-({[3-(isoquinolin-4-yl)phenyl]carbonyl}amino)benzoate] | PAI-1 activity % ([1]; compound 20 μM): 62.7%; PAI-1 activity % ([1]; compound 50 μM): 7.5%; PAI-1 activity % ([2]; compound concentration 20 μM): 71.6%; PAI-1 activity % ([2]; compound concentration 50 μM): 19.2%
3 | 71.7% | 0.4% |  |  | O=C(Nc1ccc(Cl)cc1C(=O)[O-])c1cccc(-c2ccc3ncccc3c2)c1.[Na+] [Example 65, sodium 5-chloro-2-({[3-(quinolin-6-yl)phenyl]carbonyl}amino)benzoate] | PAI-1 activity % ([1]; compound 20 μM): 76.9%; PAI-1 activity % ([1]; compound 50 μM): 10.8%; PAI-1 activity % ([2]; compound concentration 20 μM): 86.0%; PAI-1 activity % ([2]; compound concentration 50 μM): 25.4%
4 |  |  | 63.7% | 19.6% | O=C(Cc1cccc(-c2ccoc2)c1)Nc1ccc(Cl)cc1C(=O)O [Example 3, 5-chloro-2-({[3-(furan-3-yl)phenyl]acetyl}amino)benzoic acid] | 
5 | 70.7% | 0.2% | 41.8% | 8% | O=C(Nc1ccc(Cl)cc1C(=O)O)c1ccc(-c2ccccc2)cc1 [Known compound (2), 2-[(biphenyl-4-ylcarbonyl)amino]-5-chlorobenzoic acid, reference compound] | 
6 | 2.4% | 2.1% |  |  | O=C(Nc1ccc(Cl)cc1C(=O)[O-])c1cccc(-c2cccc3cccnc23)c1.[Na+] [Example 68, sodium 5-chloro-2-({[3-(quinolin-8-yl)phenyl]carbonyl}amino)benzoate] | PAI-1 activity % ([1]; compound 20 μM): 99.8%; PAI-1 activity % ([1]; compound 50 μM): 66.3%; PAI-1 activity % ([2]; compound concentration 20 μM): 20.7%; PAI-1 activity % ([2]; compound concentration 50 μM): 9.4%
7 |  |  | 51.4% | 22.2% | O=C(O)c1cc(Cl)ccc1NC(=O)c1ccccc1-c1ccccc1 [Example 6, 2-[(biphenyl-2-ylcarbonyl)amino]-5-chlorobenzoic acid] | 
8 | 99.8% | 0.4% | 54.2% | 7.4% | O=C(Nc1ccc(Cl)cc1C(=O)O)c1ccc(-c2cccs2)cc1 [Example 7, 5-chloro-2-({[4-(thiophen-2-yl)phenyl]carbonyl}amino)benzoic acid] | 
9 | 100% | 12.7% | 44% | 11% | CC(C)(C)c1ccc(C(=O)Nc2ccc(Cl)cc2C(=O)O)cc1 [Known compound (1), 2-{[(4-tert-butylphenyl)carbonyl]amino}-5-chlorobenzoic acid, reference compound] | 
10 | 31.1% | 3.6% |  |  | Cc1ccc(-c2ccc(F)cc2)cc1NCC(=O)Nc1ccc(Cl)cc1C(=O)O [Example 72, 5-chloro-2-{[N-(4′-fluoro-4-methylbiphenyl-3-yl)glycyl]amino}benzoic acid] | 
11 | 94.8% | 2.5% |  |  | O=C(O)c1cc(Cl)ccc1NC(=O)c1cccc2c1Cc1ccccc1-2 [Example 38, 5-chloro-2-[(9H-fluoren-1-ylcarbonyl)amino]benzoic acid] | 
12 | 55.7% | 1.9% |  |  | O=C(COc1cccc(-c2ccccc2)c1)Nc1ccc(Cl)cc1C(=O)O [Example 20, 2-{[(biphenyl-3-yloxy)acetyl]amino}-5-chlorobenzoic acid] | 
13 | 97.1% | 45.1% |  |  | O=C(Nc1ccc(Cl)cc1C(=O)O)c1ccc(C2=CCOCC2)cc1 [Example 34, 5-chloro-2-({[4-(3,6-dihydro-2H-pyran-4-yl)phenyl]carbonyl}amino)benzoic acid] | 
14 | 99.1% | 26.6% |  |  | O=C(Nc1ccc(Cl)cc1C(=O)O)c1ccc(N2CCCC2)cc1 [Example 83, 5-chloro-2-({[4-(pyrrolidin-1-yl)phenyl]carbonyl}amino)benzoic acid hydrochloride] | 
15 | 98.8% | 15.6% |  |  | O=C(O)c1cc(Cl)ccc1NC(=O)C1(c2cccc(-c3ccoc3)c2)CC1 [Example 35, 5-chloro-2-[({1-[3-(furan-3-yl)phenyl]cyclopropyl}carbonyl)amino]benzoic acid] | 
16 | 39.6% | 2.1% |  |  | O=C(Nc1ccc(-c2ccccc2)cc1)Nc1ccc(Cl)cc1C(=O)O [Example 71, 2-[(biphenyl-4-ylcarbamoyl)amino]-5-chlorobenzoic acid] | 

More lines, now with the values behind:

Row | Molecule | activity at 2.5 µM [3] | activity at 10 µM [3] | activity at 20 µM [4] | activity at 50 µM [4] | other results
17 | Cn1cc(C(=O)C(=O)Nc2ccc(Cl)cc2C(=O)O)c2cc(-c3ccoc3)ccc21 [Example 14, 5-chloro-2-({[5-(furan-3-yl)-1-methyl-1H-indol-3-yl](oxo)acetyl}amino)benzoic acid] | 87.4% | 4.3% | 22.1% | 12.9% | 
18 | Cc1sc(NC(=O)c2cccc(-c3ccoc3)c2)c(C(=O)O)c1-c1ccccc1 [Example 5, 2-({[3-(furan-3-yl)phenyl]carbonyl}amino)-5-methyl-4-phenylthiophene-3-carboxylic acid] | 46.4% | 0.3% | 14.7% | 6.1% | 
19 | 5-chloro-2-({[4-(pyrrolidin-1-yl)phenyl]carbonyl}amino)benzoic acid hydrochloride [Example 83] |  |  |  |  | PAI-1 activity % ([1]; compound 20 μM): 99.8%; PAI-1 activity % ([1]; compound 50 μM): 77.8%
20 | O=C(O)c1cc(Cl)ccc1NC(=O)[C@@H]1CCCN1C(=O)c1cccc(-c2ccoc2)c1 [Example 10, 5-chloro-2-[(-{[3-(furan-3-yl)phenyl]carbonyl}-L-prolyl)amino]benzoic acid] |  |  | 73% | 38.3% | 
21 | O=C(O)c1cc(Cl)ccc1NC(=O)C1CCCN(C(=O)Cc2cccc(-c3ccoc3)c2)C1 (stereo not drawn) [Example 12, 5-chloro-2-{[(1-{[3-(furan-3-yl)phenyl]acetyl}piperidin-3-yl)carbonyl]amino}benzoic acid] |  |  | 57.7% | 15.7% | 
22 | O=C(CCCNC(=O)c1cccc(-c2ccoc2)c1)Nc1ccc(Cl)cc1C(=O)O [Example 1, 5-chloro-2-{[4-({[3-(furan-3-yl)phenyl]carbonyl}amino)butanoyl]amino}benzoic acid] |  |  | 95.5% | 48.9% | 
23 | O=C(COc1cccc(-c2ccccc2)c1)Nc1ccc(-c2ccccc2)cc1C(=O)O [Example 45] |  |  |  |  | PAI-1 activity % ([1]; compound 20 μM): 79.6%; PAI-1 activity % ([1]; compound 50 μM): 7.7%; PAI-1 activity % ([2]; compound concentration 20 μM): 47.8%; PAI-1 activity % ([2]; compound concentration 50 μM): 8.4%; PAI-1 activity % ([3]; compound 2.5 μM): 76.9%; PAI-1 activity % ([3]; compound 10 μM): 0.9%
24 | O=C(COc1ccc(-c2ccccc2)cc1)Nc1ccc(-c2ccoc2)cc1C(=O)O [Example 46] |  |  |  |  | PAI-1 activity % ([1]; compound 20 μM): 85.4%; PAI-1 activity % ([1]; compound 50 μM): 8.4%; PAI-1 activity % ([2]; compound concentration 20 μM): 83.9%; PAI-1 activity % ([2]; compound concentration 50 μM): 47.3%; PAI-1 activity % ([3]; compound 2.5 μM): 69.9%; PAI-1 activity % ([3]; compound 10 μM): 0.4%
25 | 5-chloro-2-({[4-(diphenylmethyl)piperazin-1-yl]carbonyl}amino)benzoic acid hydrochloride [Example 75] |  |  |  |  | PAI-1 activity % ([1]; compound 20 μM): 91.3%; PAI-1 activity % ([1]; compound 50 μM): 13.3%; PAI-1 activity % ([2]; compound concentration 20 μM): 46.1%
26 | CC(C(=O)Nc1ccc(Cl)cc1C(=O)O)(c1ccccc1)c1ccccc1 [Example 39] |  |  |  |  | PAI-1 activity % ([1]; compound 100 μM): 36.1%; PAI-1 activity % ([2]; compound concentration 20 μM): 64.3%; PAI-1 activity % ([2]; compound concentration 50 μM): 6.9%; PAI-1 activity % ([3]; compound 2.5 μM): 88.6%; PAI-1 activity % ([3]; compound 10 μM): 22.1%
27 | Cn1c(C(=O)Nc2ccc(Cl)cc2C(=O)O)cc2cc(Br)ccc21 [Example 23, 2-{[(5-bromo-1-methyl-1H-indol-2-yl)carbonyl]amino}-5-chlorobenzoic acid] | 97.3% | 1.8% |  |  | 
28 | O=C(Nc1ccc(Cl)cc1-c1nnn[nH]1)c1cccc(-c2cccc3cccnc23)c1 [Example 102, N-[4-chloro-2-(1H-tetrazol-5-yl)phenyl]-3-(quinolin-8-yl)benzamide] | 91.3% | 1.5% |  |  | 
29 | O=C(COc1ccc(C23CC4CC(CC(C4)C2)C3)cc1)Nc1ccc(-c2ccoc2)cc1C(=O)O [Example 47, 2-({[4-(adamantan-1-yl)phenoxy]acetyl}amino)-5-(furan-3-yl)benzoic acid] | 9.7% | 0.6% |  |  | 
30 | O=C(O)c1cc(Cl)ccc1NC(=O)[C@@H]1CCCN1C(=O)Cc1cccc(-c2ccoc2)c1 [Example 9, 5-chloro-2-[(1-{[3-(furan-3-yl)phenyl]acetyl}-L-prolyl)amino]benzoic acid] |  |  | 98.1% | 53.2% | 
31 | O=C(CN1CCN(C(c2ccccc2)c2ccccc2)CC1)Nc1ccc(Cl)cc1C(=O)O [Example 77, 5-chloro-2-({[4-(diphenylmethyl)piperazin-1-yl]acetyl}amino)benzoic acid] | 89.6% | 19.3% |  |  | 
32 | O=C(CCOc1ccc(C23CC4CC(CC(C4)C2)C3)cc1)Nc1ccc(Cl)cc1C(=O)O [Example 59, 2-({3-[4-(adamantan-1-yl)phenoxy]propanoyl}amino)-5-chlorobenzoic acid] | 56.3% | 1.4% |  |  | 
